Tests used:
Assay in all cases: DSF 100 kinase selectivity screen;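 also: compound tested at 20 µM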
Assay type in all cases: binding
[1] = molecular target: T1, ~100 representative kinases (Homo sapiens, UniProt Q9Y243); conditions: Protein AKT3; average of three replicates
T1 construct: Recombinant protein kinase domains with a concentration of 2 μM
Procedure, shortened: (§1)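 Each kinase domain, at 2 μM, is mixed with 20 μM test compound and SYPRO Orange in Hepes (20 mM, pH 7.5) with 500 mM NaCl. Temperature is then raised at 3°C/min and fluorescence-monitored unfolding yields the melting temperature change, ΔTm in degrees Celsius.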

[2] = molecular target: T2, ~100 representative kinases (Homo sapiens, UniProt Q9Y6E0); conditions: protein MST3; average of three replicates
T2 construct: Recombinant protein kinase domains with a concentration of 2 μM
T2 sequence (Q9Y6E0 whole entry, the tested form may be a part): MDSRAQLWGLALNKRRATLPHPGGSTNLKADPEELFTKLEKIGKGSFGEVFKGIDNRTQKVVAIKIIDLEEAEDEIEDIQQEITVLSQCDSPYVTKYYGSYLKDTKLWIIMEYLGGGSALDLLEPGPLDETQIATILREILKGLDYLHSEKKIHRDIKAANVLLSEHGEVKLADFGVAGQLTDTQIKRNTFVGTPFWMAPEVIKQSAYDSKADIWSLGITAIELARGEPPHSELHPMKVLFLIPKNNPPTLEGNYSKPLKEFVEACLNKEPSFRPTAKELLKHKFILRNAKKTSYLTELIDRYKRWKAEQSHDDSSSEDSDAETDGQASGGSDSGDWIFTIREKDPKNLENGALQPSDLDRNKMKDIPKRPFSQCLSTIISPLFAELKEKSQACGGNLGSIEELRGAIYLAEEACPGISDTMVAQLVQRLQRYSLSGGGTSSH
Procedure, shortened: as §1

[3] = molecular target: T3, ~100 representative kinases (Homo sapiens, UniProt Q99986); conditions: Protein VRK1; DSF; average of three replicates
T3 construct: Recombinant protein kinase domains with a concentration of 2 μM
T3 sequence (Q99986 1-396): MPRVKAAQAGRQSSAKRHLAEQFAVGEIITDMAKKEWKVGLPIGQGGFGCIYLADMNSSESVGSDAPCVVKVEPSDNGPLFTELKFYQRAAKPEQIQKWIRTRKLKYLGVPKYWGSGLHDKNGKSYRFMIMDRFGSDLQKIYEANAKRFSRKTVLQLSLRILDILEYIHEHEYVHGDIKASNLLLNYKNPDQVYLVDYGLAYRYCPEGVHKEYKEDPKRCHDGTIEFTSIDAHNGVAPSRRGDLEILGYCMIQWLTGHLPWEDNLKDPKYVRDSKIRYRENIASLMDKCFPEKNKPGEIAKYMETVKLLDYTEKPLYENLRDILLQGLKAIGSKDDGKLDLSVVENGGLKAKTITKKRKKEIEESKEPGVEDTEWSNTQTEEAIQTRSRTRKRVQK
Procedure, shortened: as §1

[4] = molecular target: T4, ~100 representative kinases (Homo sapiens, UniProt Q92630); conditions: Protein DYRK2; average of three replicates
T4 construct: Recombinant protein kinase domains with a concentration of 2 μM
T4 sequence (Q92630 1-601): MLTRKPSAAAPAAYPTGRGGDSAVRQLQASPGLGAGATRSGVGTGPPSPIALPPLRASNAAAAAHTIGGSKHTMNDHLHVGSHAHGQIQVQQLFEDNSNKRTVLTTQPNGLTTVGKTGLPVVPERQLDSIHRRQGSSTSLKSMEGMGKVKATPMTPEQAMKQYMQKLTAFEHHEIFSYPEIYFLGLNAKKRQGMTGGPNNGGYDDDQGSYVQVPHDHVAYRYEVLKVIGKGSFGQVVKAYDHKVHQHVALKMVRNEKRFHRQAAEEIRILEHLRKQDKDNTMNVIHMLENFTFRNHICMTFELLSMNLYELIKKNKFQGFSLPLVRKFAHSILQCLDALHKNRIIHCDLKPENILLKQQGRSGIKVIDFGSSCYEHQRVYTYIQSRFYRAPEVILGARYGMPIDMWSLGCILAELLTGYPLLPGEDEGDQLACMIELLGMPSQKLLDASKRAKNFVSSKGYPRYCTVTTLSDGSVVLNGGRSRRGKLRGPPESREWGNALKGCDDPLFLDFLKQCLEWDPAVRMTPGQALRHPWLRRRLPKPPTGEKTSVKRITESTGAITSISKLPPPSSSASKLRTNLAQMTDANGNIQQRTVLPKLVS
Procedure, shortened: as §1

[5] = molecular target: T5, ~100 representative kinases (Homo sapiens, UniProt P21675); conditions: Protein TAF1; DSF; average of three replicates
T5 construct: Recombinant protein kinase domains with a concentration of 2 μM
T5 sequence (P21675 whole entry, the tested form may be a part): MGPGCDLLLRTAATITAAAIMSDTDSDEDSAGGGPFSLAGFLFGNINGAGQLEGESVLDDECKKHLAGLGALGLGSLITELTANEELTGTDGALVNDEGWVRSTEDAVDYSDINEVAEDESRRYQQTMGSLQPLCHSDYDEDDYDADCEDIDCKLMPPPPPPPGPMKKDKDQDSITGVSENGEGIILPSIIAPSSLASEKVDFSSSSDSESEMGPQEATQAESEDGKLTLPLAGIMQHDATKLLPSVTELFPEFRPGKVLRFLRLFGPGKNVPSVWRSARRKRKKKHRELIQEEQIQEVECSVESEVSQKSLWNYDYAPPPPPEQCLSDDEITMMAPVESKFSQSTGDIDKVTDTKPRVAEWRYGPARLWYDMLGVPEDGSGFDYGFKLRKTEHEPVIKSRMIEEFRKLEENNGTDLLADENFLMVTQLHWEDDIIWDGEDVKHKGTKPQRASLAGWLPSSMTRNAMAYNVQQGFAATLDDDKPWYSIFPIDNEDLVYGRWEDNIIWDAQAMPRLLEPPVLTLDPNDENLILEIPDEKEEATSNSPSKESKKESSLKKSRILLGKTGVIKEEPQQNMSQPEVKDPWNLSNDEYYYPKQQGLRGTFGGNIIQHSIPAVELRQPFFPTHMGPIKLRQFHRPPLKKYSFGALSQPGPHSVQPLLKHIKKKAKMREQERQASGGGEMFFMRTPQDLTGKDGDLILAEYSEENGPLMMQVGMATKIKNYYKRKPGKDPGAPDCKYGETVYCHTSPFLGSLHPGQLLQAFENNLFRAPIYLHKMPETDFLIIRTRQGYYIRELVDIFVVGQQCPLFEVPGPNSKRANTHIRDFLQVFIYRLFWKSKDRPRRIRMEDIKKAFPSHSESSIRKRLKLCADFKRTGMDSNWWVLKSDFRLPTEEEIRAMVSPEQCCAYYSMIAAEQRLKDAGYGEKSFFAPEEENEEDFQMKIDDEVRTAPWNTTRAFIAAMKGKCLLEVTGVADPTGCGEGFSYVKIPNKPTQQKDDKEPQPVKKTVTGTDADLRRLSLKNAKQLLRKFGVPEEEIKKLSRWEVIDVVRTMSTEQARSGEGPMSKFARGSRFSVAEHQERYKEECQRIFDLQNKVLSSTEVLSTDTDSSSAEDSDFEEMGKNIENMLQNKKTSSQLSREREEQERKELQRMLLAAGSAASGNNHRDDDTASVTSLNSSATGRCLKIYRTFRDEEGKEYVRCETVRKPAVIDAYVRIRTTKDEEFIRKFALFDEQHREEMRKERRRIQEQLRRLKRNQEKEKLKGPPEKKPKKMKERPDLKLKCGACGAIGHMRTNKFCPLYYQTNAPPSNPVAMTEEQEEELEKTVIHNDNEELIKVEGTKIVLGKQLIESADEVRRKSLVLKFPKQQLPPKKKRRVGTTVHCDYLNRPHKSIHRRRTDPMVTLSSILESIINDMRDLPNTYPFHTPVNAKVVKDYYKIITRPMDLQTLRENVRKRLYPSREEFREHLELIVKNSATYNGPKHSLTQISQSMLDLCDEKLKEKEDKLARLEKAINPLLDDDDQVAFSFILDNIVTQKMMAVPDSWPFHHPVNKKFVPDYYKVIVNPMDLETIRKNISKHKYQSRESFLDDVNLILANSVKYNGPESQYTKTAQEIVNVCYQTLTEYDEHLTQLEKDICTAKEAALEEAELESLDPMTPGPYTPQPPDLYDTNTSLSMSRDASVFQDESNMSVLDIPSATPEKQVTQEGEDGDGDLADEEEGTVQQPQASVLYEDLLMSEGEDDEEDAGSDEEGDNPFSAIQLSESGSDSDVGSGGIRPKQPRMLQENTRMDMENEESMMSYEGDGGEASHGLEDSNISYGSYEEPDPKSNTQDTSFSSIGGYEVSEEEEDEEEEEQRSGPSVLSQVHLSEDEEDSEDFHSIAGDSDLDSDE
Procedure, shortened: as §1

[6] = molecular target: T6, ~100 representative kinases (Homo sapiens, UniProt P49841); conditions: protein GSK3B; average of three replicates
T6 construct: Recombinant protein kinase domains with a concentration of 2 μM
T6 sequence (P49841 whole entry, the tested form may be a part): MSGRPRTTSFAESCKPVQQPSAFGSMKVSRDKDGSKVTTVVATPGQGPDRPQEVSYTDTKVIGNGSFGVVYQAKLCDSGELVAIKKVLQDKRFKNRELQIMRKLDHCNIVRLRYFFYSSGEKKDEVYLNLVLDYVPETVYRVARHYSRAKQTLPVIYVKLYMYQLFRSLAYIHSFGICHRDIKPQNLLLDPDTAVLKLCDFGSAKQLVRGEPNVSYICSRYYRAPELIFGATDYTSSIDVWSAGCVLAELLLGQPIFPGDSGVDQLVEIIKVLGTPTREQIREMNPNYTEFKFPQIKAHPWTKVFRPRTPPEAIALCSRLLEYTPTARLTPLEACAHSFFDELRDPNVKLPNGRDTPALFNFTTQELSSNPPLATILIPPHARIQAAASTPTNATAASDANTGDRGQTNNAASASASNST
Procedure, shortened: as §1

[7] = molecular target: T7, ~100 representative kinases (Homo sapiens, UniProt Q13153); conditions: protein PAK1; average of three replicates
T7 construct: Recombinant protein kinase domains with a concentration of 2 μM
T7 sequence (Q13153 whole entry, the tested form may be a part): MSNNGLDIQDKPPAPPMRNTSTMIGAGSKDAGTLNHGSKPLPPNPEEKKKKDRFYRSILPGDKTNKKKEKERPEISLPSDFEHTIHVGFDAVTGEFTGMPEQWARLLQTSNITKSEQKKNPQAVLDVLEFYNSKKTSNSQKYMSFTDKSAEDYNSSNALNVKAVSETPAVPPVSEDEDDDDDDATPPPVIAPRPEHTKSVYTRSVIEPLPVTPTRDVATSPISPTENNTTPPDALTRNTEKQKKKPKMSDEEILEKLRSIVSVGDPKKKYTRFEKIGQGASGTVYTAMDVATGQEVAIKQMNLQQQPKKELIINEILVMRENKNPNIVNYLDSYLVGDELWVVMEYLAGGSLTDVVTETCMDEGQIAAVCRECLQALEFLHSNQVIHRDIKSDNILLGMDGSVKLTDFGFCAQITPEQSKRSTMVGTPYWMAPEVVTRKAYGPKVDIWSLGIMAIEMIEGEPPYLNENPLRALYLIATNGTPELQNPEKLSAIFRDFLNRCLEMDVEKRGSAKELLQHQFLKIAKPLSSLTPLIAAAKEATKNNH
Procedure, shortened: as §1

[8] = molecular target: T8, ~100 representative kinases (Homo sapiens, UniProt P24941); conditions: Protein CDK2; average of three replicates
T8 construct: Recombinant protein kinase domains with a concentration of 2 μM
Procedure, shortened: as §1

[9] = molecular target: T9, ~100 representative kinases (Homo sapiens, UniProt P53779); conditions: protein MAPK10; average of three replicates
T9 construct: Recombinant protein kinase domains with a concentration of 2 μM
T9 sequence (P53779 whole entry, the tested form may be a part): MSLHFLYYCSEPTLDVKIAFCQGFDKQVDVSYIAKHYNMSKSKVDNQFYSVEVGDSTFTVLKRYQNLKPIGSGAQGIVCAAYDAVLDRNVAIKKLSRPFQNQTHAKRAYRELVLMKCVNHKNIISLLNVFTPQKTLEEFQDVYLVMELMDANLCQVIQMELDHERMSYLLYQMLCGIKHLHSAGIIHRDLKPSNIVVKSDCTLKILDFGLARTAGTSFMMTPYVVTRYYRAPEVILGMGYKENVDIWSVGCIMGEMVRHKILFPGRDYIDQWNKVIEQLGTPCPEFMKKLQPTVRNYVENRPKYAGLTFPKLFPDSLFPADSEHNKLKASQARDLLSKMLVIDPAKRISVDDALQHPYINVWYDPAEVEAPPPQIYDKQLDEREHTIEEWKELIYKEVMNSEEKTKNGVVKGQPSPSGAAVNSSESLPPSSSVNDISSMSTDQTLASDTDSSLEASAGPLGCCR
Procedure, shortened: as §1

[10] = molecular target: T10, ~100 representative kinases (Homo sapiens, UniProt Q9UEW8); conditions: Protein STK39; DSF; average of three replicates
T10 construct: Recombinant protein kinase domains with a concentration of 2 μM
Procedure, shortened: as §1

[11] = molecular target: T11, ~100 representative kinases (Homo sapiens, UniProt P27448); conditions: protein MARK3; average of three replicates
T11 construct: Recombinant protein kinase domains with a concentration of 2 μM
T11 sequence (P27448 whole entry, the tested form may be a part): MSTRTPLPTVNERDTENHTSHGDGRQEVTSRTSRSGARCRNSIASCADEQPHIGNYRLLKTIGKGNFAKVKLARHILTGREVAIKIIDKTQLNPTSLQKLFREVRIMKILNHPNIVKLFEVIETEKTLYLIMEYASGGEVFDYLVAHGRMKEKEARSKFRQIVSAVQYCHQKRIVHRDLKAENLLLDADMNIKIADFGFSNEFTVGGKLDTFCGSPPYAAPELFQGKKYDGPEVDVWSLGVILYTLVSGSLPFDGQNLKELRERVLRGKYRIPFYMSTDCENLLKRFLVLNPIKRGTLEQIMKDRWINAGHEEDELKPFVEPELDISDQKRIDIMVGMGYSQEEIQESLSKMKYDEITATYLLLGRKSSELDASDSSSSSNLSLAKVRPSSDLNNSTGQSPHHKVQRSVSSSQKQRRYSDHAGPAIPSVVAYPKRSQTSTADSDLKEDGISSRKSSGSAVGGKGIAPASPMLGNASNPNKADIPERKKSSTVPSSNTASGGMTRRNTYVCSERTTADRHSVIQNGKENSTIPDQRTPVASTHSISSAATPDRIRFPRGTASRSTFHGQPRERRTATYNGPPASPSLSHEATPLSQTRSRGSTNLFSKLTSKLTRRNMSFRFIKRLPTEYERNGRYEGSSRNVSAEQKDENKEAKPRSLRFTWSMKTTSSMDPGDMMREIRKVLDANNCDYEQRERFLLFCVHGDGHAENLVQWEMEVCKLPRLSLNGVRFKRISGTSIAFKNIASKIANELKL
Procedure, shortened: as §1

T1 sequence (Q9Y243 whole entry, the tested form may be a part): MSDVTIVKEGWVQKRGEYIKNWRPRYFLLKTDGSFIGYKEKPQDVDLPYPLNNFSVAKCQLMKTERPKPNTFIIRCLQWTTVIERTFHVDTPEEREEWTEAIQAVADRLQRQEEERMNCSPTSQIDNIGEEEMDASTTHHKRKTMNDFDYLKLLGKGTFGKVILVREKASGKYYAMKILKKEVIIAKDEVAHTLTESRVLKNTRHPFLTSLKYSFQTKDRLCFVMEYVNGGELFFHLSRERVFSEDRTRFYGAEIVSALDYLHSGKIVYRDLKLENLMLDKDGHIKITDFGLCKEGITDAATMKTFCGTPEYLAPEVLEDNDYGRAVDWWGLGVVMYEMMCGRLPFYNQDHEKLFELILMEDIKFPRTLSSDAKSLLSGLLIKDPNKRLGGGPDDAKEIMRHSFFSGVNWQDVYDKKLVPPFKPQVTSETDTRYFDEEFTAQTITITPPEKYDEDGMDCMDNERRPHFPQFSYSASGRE

Structure (SMILES): COc1ccc(NC(=O)C2(C(=O)Nc3cccc(-c4c[nH]c5ncnc(N6CCOCC6)c45)c3)CC2)cc1 [Compound 16]
- dTm [1]: 0.25 K
- dTm [2]: 1.58 K
- dTm [3]: 0.60 K
- dTm [4]: 3.09 K
- dTm [5]: 0.37 K
- dTm [6]: 2.09 K
- dTm [7]: 0.47 K
- dTm [8]: 5.86 K
- dTm [9]: 0.65 K
- dTm [10]: -0.15 K
- dTm [11]: 2.45 K

Structure (SMILES): O=C(Nc1cccc(-c2c[nH]c3ncnc(N4CCOCC4)c23)c1)C1(C(=O)Nc2ccc(F)c(F)c2)CC1 [Compound 17]
- dTm [1]: 0.71 K
- dTm [2]: 6.82 K
- dTm [3]: 1.14 K
- dTm [4]: 7.75 K
- dTm [5]: 0.99 K
- dTm [6]: 7.13 K
- dTm [7]: 3.52 K
- dTm [8]: 5.91 K
- dTm [9]: 1.84 K
- dTm [10]: 1.80 K
- dTm [11]: 5.81 K

Structure (SMILES): O=C(Nc1cccc(-c2c[nH]c3ncnc(N4CCOCC4)c23)c1)C1(C(=O)Nc2ccc(F)c(Cl)c2)CC1 [Compound 18]
- dTm [1]: 1.04 K
- dTm [2]: 6.96 K
- dTm [3]: 1.71 K
- dTm [4]: 9.51 K
- dTm [5]: 1.40 K
- dTm [6]: 9.62 K
- dTm [7]: 5.39 K
- dTm [8]: 6.75 K
- dTm [9]: 3.57 K
- dTm [10]: 2.24 K
- dTm [11]: 7.07 K

Structure (SMILES): O=C(Nc1cccc(-c2c[nH]c3ncnc(N4CCOCC4)c23)c1)C1(C(=O)Nc2ccc(F)c(Br)c2)CC1 [Compound 19]
- dTm [1]: -0.15 K
- dTm [2]: 3.29 K
- dTm [3]: 1.65 K
- dTm [4]: 3.42 K
- dTm [5]: 0.00 K
- dTm [6]: 0.00 K
- dTm [7]: 5.56 K
- dTm [8]: 7.42 K
- dTm [9]: 4.40 K
- dTm [10]: 1.45 K
- dTm [11]: 7.11 K

Structure (SMILES): Cc1cc(NC(=O)C2(C(=O)Nc3cccc(-c4c[nH]c5ncnc(N6CCOCC6)c45)c3)CC2)ccc1F [Compound 20]
- dTm [1]: 0.62 K
- dTm [2]: 8.98 K
- dTm [3]: 1.43 K
- dTm [4]: 10.73 K
- dTm [5]: 0.99 K
- dTm [6]: 9.68 K
- dTm [7]: 6.40 K
- dTm [8]: 8.50 K
- dTm [9]: 0.56 K
- dTm [10]: 3.28 K
- dTm [11]: 8.85 K

Structure (SMILES): COc1cc(NC(=O)C2(C(=O)Nc3cccc(-c4c[nH]c5ncnc(N6CCOCC6)c45)c3)CC2)ccc1F [Compound 21]
- dTm [1]: 0.58 K
- dTm [2]: 6.57 K
- dTm [3]: 0.93 K
- dTm [4]: 8.53 K
- dTm [5]: 0.37 K
- dTm [6]: 8.20 K
- dTm [7]: 4.31 K
- dTm [8]: 4.67 K
- dTm [9]: 0.29 K
- dTm [10]: 1.92 K
- dTm [11]: 6.63 K

Structure (SMILES): CC(C)(C)c1cccc(NC(=O)C2(C(=O)Nc3cccc(-c4c[nH]c5ncnc(N6CCOCC6)c45)c3)CC2)c1 [Compound 22]
- dTm [1]: 0.15 K
- dTm [2]: 0.95 K
- dTm [3]: 0.81 K
- dTm [4]: 5.80 K
- dTm [5]: 1.24 K
- dTm [6]: 6.13 K
- dTm [7]: 3.87 K
- dTm [8]: 5.91 K
- dTm [9]: 1.37 K
- dTm [10]: 3.92 K
- dTm [11]: 4.89 K

Structure (SMILES): O=C(Nc1cccc(-c2c[nH]c3ncnc(N4CCOCC4)c23)c1)C1(C(=O)Nc2ccc(F)cc2F)CC1 [Compound 23]
- dTm [1]: 0.68 K
- dTm [2]: 5.25 K
- dTm [3]: 0.51 K
- dTm [4]: 3.88 K
- dTm [5]: 0.59 K
- dTm [6]: 3.90 K
- dTm [7]: 1.05 K
- dTm [8]: 3.56 K
- dTm [9]: -0.75 K
- dTm [10]: 1.14 K
- dTm [11]: 4.65 K

Structure (SMILES): Cc1cc(F)ccc1NC(=O)C1(C(=O)Nc2cccc(-c3c[nH]c4ncnc(N5CCOCC5)c34)c2)CC1 [Compound 24]
- dTm [1]: 0.50 K
- dTm [2]: 3.82 K
- dTm [3]: 0.44 K
- dTm [4]: 1.96 K
- dTm [5]: 0.30 K
- dTm [6]: 4.64 K
- dTm [7]: 2.36 K
- dTm [8]: 3.87 K
- dTm [9]: -0.11 K
- dTm [10]: 0.71 K
- dTm [11]: 4.53 K

Structure (SMILES): O=C(Nc1cccc(-c2c[nH]c3ncnc(N4CCOCC4)c23)c1)C1(C(=O)Nc2cc(Br)c(F)cc2F)CC1 [Compound 25]
- dTm [1]: -0.48 K
- dTm [2]: 0.83 K
- dTm [3]: 1.24 K
- dTm [4]: 2.68 K
- dTm [5]: 1.63 K
- dTm [6]: 1.43 K
- dTm [7]: 0.67 K
- dTm [8]: 3.68 K
- dTm [9]: 3.64 K
- dTm [10]: -0.03 K
- dTm [11]: 3.00 K

Structure (SMILES): O=C(Nc1cccc(-c2c[nH]c3ncnc(N4CCOCC4)c23)c1)C1(C(=O)Nc2ccc(F)c(Br)c2F)CC1 [Compound 26]
- dTm [1]: -0.00683 K
- dTm [2]: 3.50 K
- dTm [3]: 1.02 K
- dTm [4]: 4.70 K
- dTm [5]: -1.20 K
- dTm [6]: 7.56 K
- dTm [7]: 2.69 K
- dTm [8]: 3.97 K
- dTm [9]: 5.85 K
- dTm [10]: 0.00 K
- dTm [11]: 3.94 K

Structure (SMILES): O=C(Nc1cc(F)cc(Br)c1)C1(C(=O)Nc2cccc(-c3c[nH]c4ncnc(N5CCOCC5)c34)c2)CC1 [Compound 27]
- dTm [1]: 0.53 K
- dTm [2]: 3.03 K
- dTm [3]: 1.05 K
- dTm [4]: 3.64 K
- dTm [5]: -2.32 K
- dTm [6]: 3.16 K
- dTm [7]: 3.33 K
- dTm [8]: 4.12 K
- dTm [9]: 5.93 K
- dTm [10]: 0.00 K
- dTm [11]: 3.05 K

Structure (SMILES): CC(C)(C)c1cc(NC(=O)Nc2cccc(-c3c[nH]c4ncnc(N5CCOCC5)c34)c2)n(-c2ccc3ncccc3c2)n1 [Compound 28]
- dTm [1]: 0.49 K
- dTm [2]: 9.37 K
- dTm [3]: 1.63 K
- dTm [4]: 10.25 K
- dTm [5]: 1.17 K
- dTm [6]: 13.25 K
- dTm [7]: 5.08 K
- dTm [8]: 14.76 K
- dTm [9]: 4.27 K
- dTm [10]: 7.55 K
- dTm [11]: 5.67 K

Structure (SMILES): CCSc1nc(NC)c2c(-c3cccc(NC(=O)Nc4cc(C(C)(C)C)nn4-c4ccc(C)cc4)c3)c[nH]c2n1 [Compound 32]
- dTm [1]: 0.30 K
- dTm [2]: -1.49 K
- dTm [3]: -0.68 K
- dTm [4]: 6.49 K
- dTm [5]: -5.70 K
- dTm [6]: -0.49 K
- dTm [7]: -0.13 K
- dTm [8]: 0.83 K
- dTm [9]: 3.75 K
- dTm [10]: 0.77 K
- dTm [11]: 0.16 K

Structure (SMILES): COc1cc2c(Oc3ccc(NC(=O)C4(C(=O)Nc5ccc(F)cc5)CC4)cc3F)ccnc2cc1OCCCN1CCOCC1 [Foretinib, reference compound]
- dTm [1]: -0.34 K
- dTm [2]: 4.06 K
- dTm [3]: 1.05 K
- dTm [4]: 4.19 K
- dTm [5]: 0.54 K
- dTm [6]: 3.46 K
- dTm [7]: 1.69 K
- dTm [8]: 0.40 K
- dTm [9]: 1.66 K
- dTm [10]: 0.70 K
- dTm [11]: 3.96 K

Structure (SMILES): CCNc1nc(Nc2cc(F)c(C(=O)N3CCOCC3)cc2OC)ncc1C(F)(F)F [GNE-7915]
- dTm [1]: -0.31 K
- dTm [2]: 0.91 K
- dTm [3]: 0.12 K
- dTm [4]: 4.85 K
- dTm [5]: -0.58 K
- dTm [6]: 3.70 K
- dTm [7]: -0.11 K
- dTm [8]: 1.40 K
- dTm [9]: 0.33 K
- dTm [10]: 0.28 K
- dTm [11]: 0.65 K

— paper PMC12136037, “Type II kinase inhibitors that target Parkinson’s disease–associated LRRK2” (Science Advances, 2025)
